ChEMBL document CHEMBL3580623, “Minor Structural Change to Tertiary Sulfonamide RORc Ligands Led to Opposite Mechanisms of Action” (ACS Med Chem Lett, 2015)

Legend:
[1] = biological target: T1, Nuclear receptor ROR-gamma (Homo sapiens, UniProt P51449); assay type: functional
T1 sequence (P51449 whole entry): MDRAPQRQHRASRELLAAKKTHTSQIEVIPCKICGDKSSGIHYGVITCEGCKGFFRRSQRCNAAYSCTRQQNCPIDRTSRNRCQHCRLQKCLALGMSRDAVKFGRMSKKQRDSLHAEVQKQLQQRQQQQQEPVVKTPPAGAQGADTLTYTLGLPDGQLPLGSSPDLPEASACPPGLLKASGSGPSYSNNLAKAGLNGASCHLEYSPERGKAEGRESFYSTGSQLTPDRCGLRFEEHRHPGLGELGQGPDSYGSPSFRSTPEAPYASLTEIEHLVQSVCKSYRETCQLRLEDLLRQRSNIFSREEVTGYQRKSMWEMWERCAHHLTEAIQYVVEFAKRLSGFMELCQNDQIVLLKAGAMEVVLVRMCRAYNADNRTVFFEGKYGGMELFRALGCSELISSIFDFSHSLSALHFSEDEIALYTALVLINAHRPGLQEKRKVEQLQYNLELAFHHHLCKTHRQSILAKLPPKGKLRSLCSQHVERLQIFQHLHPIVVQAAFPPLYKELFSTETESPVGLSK

[2] = biological target: T1, Nuclear receptor ROR-gamma
Description: Displacement of [3H2]-25-hydroxycholesterol from N-terminal 6xHis-tagged human RORc ligand binding domain (241 to 486) expressed in bacterial expression system after 3 hrs by scintillation counting analysis

[3] = biological target: T1, Nuclear receptor ROR-gamma; assay type: functional; remark: listed apart in the source
[4] = test system: PBMC; assay: Induction of IL17 production in human PBMC cells after 48 hrs by sandwich ELISA method; assay type: functional, cell-based
[5] = test system: PBMC; assay: Induction of IL17 production in human PBMC cells after 48 hrs by sandwich ELISA method relative to control; assay type: functional
[6] = test system: PBMC; assay: Effect on IFNgamma production in human PBMC cells after 48 hrs by sandwich ELISA method; assay type: functional, cell-based
[7] = test system: PBMC; assay: Cytotoxicity against human PBMC assessed as effect on cell physiology after 48 hrs by CellTiter-Glo assay; assay type: cell-based
[8] = test system: PBMC; assay: Inhibition of IL17 production in human PBMC cells after 48 hrs by sandwich ELISA method; assay type: functional, cell-based
[9] = test system: PBMC; assay: Inhibition of IL17 production in human PBMC cells after 48 hrs by sandwich ELISA method relative to control; assay type: functional
[10] = biological target: T1, Nuclear receptor ROR-gamma; assay: Inverse agonist activity at GAL4-fused human RORc expressed in HEK293T cells assessed as suppression of basal transcriptional activity after 20 hrs by dual-glo luciferase reporter gene assay; assay type: functional, cell-based, HEK-293T
[11] = biological target: T2, Nuclear receptor ROR-beta (Homo sapiens, UniProt Q92753); assay: Inverse agonist activity at GAL4-fused human RORb expressed in HEK293T cells assessed as suppression of basal transcriptional activity after 20 hrs by dual-glo luciferase reporter gene assay; assay type: cell-based, HEK-293T
T2 sequence (Q92753 whole entry): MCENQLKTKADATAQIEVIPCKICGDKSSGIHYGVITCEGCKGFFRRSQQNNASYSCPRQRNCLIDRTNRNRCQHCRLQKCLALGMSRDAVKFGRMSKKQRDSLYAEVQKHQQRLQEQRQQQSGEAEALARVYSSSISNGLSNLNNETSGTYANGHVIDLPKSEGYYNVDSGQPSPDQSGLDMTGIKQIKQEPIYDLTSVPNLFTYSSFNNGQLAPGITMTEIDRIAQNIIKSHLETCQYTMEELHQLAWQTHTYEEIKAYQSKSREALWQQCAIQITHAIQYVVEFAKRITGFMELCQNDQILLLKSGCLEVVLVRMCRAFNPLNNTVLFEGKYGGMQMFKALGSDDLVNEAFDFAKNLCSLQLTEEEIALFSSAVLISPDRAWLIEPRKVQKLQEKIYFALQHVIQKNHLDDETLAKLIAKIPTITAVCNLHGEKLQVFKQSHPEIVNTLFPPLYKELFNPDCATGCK

[12] = biological target: T3, Nuclear receptor subfamily 1 group I member 2 (Homo sapiens, UniProt O75469); assay: Agonist activity at GAL4-fused human PXR expressed in HEK293T cells assessed as activation of basal transcriptional activity after 20 hrs by dual-glo luciferase reporter gene assay; assay type: cell-based; details: hek-293t
T3 sequence (O75469 whole entry): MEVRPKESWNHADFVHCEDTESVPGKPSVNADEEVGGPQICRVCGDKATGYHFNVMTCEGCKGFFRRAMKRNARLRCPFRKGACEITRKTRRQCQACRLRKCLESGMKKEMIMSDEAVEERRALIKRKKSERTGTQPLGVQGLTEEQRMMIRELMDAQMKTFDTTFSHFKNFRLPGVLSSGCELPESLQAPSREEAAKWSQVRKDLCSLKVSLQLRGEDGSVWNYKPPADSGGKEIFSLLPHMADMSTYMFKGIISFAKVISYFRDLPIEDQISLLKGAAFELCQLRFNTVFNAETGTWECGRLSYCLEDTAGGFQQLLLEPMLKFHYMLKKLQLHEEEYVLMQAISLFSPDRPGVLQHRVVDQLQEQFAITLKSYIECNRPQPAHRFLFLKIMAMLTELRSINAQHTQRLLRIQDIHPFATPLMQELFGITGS

[13] = biological target: T4, Bile acid receptor (Homo sapiens, UniProt Q96RI1); assay: Antagonist activity at GAL4-fused human FXR expressed in HEK293T cells assessed as inhibition of agonist-induced transcriptional activity after 20 hrs by dual-glo luciferase reporter gene assay
T4 sequence (Q96RI1 whole entry): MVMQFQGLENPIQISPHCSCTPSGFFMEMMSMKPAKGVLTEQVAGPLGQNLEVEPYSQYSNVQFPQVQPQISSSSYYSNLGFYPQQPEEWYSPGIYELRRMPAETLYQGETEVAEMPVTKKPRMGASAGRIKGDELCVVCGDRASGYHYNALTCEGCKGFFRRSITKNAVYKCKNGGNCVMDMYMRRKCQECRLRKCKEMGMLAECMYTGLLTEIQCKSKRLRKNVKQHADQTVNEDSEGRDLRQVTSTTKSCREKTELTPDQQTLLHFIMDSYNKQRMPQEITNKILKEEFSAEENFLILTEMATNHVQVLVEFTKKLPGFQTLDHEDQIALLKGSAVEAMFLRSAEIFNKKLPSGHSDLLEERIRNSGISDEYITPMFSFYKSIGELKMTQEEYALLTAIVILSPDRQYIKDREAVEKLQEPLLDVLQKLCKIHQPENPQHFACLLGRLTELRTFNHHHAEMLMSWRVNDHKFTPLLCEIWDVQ

[14] = biological target: T5, Oxysterols receptor LXR-alpha (Homo sapiens, UniProt Q13133); assay: Antagonist activity at GAL4-fused human LXRalpha expressed in HEK293T cells assessed as inhibition of agonist-induced transcriptional activity after 20 hrs by dual-glo luciferase reporter gene assay
T5 sequence (Q13133 whole entry): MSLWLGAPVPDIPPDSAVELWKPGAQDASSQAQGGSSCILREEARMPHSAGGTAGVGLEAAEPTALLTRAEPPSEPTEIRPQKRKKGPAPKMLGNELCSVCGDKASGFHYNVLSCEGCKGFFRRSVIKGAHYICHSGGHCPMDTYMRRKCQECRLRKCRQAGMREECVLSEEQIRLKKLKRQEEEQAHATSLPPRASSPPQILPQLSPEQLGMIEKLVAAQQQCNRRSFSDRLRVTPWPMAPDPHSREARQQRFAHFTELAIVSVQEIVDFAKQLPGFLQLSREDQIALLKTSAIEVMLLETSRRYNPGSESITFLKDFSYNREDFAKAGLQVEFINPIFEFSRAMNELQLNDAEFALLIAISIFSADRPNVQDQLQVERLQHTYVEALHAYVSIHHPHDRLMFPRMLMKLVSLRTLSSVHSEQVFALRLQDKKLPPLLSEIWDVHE

SMILES | EC50 [1] [nM] | EC50 [3] [nM] | further results
CC(=O)N1CCN(c2ccc(CN(C3CCC3)S(=O)(=O)Cc3ccc(Cl)cc3)c(F)c2)CC1 | 33 | – | IC50 [2]: 37 nM
CC(=O)N1CCN(c2ccc(CN(C3CCC3)S(=O)(=O)c3ccccc3)c(F)c2)CC1 | – | 69 | EC50 [4]: 780 nM; Efficacy [5]: 77%; EC50 [6]: > 10000 nM; EC50 [7]: > 20000 nM
CC(=O)N1CCN(c2ccc(CN(C3CCC3)S(=O)(=O)Cc3ccccc3)c(F)c2)CC1 | 11 | – | EC50 [8]: 350 nM; Efficacy [9]: -79%; EC50 [6]: > 10000 nM; EC50 [7]: > 20000 nM
CC(=O)N1CCN(c2ccc(CN(C3CCC3)S(=O)(=O)CCc3ccccc3)c(F)c2)CC1 | 310 | – | –
CC(=O)N1CCN(c2ccc(CN(C3CCC3)S(=O)(=O)c3ccccc3F)c(F)c2)CC1 | – | 63 | EC50 [4]: 800 nM; Efficacy [5]: 71%; EC50 [6]: > 10000 nM; EC50 [7]: > 20000 nM
CC(=O)N1CCN(c2ccc(CN(C3CCC3)S(=O)(=O)Cc3ccccc3F)c(F)c2)CC1 | 3 | – | EC50 [8]: 320 nM; Efficacy [9]: -72%; EC50 [6]: > 10000 nM; EC50 [7]: > 20000 nM; EC50 [10]: 15 nM; EC50 [11]: 2700 nM; Activity [12]: Not Active; EC50 [13]: 6100 nM; EC50 [14]: 9200 nM
CC(=O)N1CCN(c2ccc(CN(C3CCC3)S(=O)(=O)c3cccc(F)c3)c(F)c2)CC1 | – | 41 | –
CC(=O)N1CCN(c2ccc(CN(C3CCC3)S(=O)(=O)Cc3cccc(F)c3)c(F)c2)CC1 | 10 | – | –
CC(=O)N1CCN(c2ccc(CN(C3CCC3)S(=O)(=O)c3ccc(F)cc3)c(F)c2)CC1 | > 10000 | – | –
CC(=O)N1CCN(c2ccc(CN(C3CCC3)S(=O)(=O)Cc3ccc(F)cc3)c(F)c2)CC1 | 7 | – | –
CC(=O)N1CCN(c2ccc(CN(C3CCC3)S(=O)(=O)c3ccccc3Cl)c(F)c2)CC1 | – | 47 | –
CC(=O)N1CCN(c2ccc(CN(C3CCC3)S(=O)(=O)Cc3ccccc3Cl)c(F)c2)CC1 | 4 | – | –
CC(=O)N1CCN(c2ccc(CN(C3CCC3)S(=O)(=O)c3cccc(Cl)c3)c(F)c2)CC1 | – | 50 | –
CC(=O)N1CCN(c2ccc(CN(C3CCC3)S(=O)(=O)Cc3cccc(Cl)c3)c(F)c2)CC1 | 9 | – | –
CC(=O)N1CCN(c2ccc(CN(C3CCC3)S(=O)(=O)c3ccc(Cl)cc3)c(F)c2)CC1 | 190 | – | –
CC(=O)N1CCN(c2ccc(CN(C3CCC3)S(=O)(=O)c3cc(Cl)cc(Cl)c3)c(F)c2)CC1 | – | 6 | –
CC(=O)N1CCN(c2ccc(CN(C3CCC3)S(=O)(=O)Cc3cc(Cl)cc(Cl)c3)c(F)c2)CC1 | 40 | – | –
CC(=O)N1CCN(c2ccc(CN(C3CCC3)S(=O)(=O)c3cc(F)cc(F)c3)c(F)c2)CC1 | – | 14 | –
COc1cccc(S(=O)(=O)N(Cc2ccc(N3CCN(C(C)=O)CC3)cc2F)C2CCC2)c1 | – | 26 | –
COc1ccc(S(=O)(=O)N(Cc2ccc(N3CCN(C(C)=O)CC3)cc2F)C2CCC2)cc1 | 3300 | – | –
CC(=O)N1CCN(c2ccc(CN(C3CCC3)S(=O)(=O)c3ccc(Cl)cc3Cl)c(F)c2)CC1 | 220 | – | –
CC(=O)N1CCN(c2ccc(CN(C3CCC3)S(=O)(=O)c3ccc(OC(F)F)cc3)c(F)c2)CC1 | 150 | – | IC50 [2]: 31 nM
CC(=O)N1CCN(c2ccc(CN(C3CCC3)S(=O)(=O)c3ccc(OC(F)(F)F)cc3)c(F)c2)CC1 | 160 | – | –
CC(=O)N1CCN(c2ccc(CN(C3CCC3)S(=O)(=O)c3ccc(C(F)(F)F)cc3)c(F)c2)CC1 | 300 | – | –
CC(=O)N1CCN(c2ccc(CN(C3CCC3)S(=O)(=O)c3ccc(C(C)(C)C)cc3)c(F)c2)CC1 | 120 | – | –
